Experimental data reported in US20250228827A1, “METHODS OF TREATING ERYTHROPOIETIC PROTOPORPHYRIA, X-LINKED PROTOPORPHYRIA, OR CONGENITAL ERYTHROPOIETIC PORPHYRIA WITH GLYCINE TRANSPORT INHIBITORS” (Disc Medicine, Inc., priority 2021, published 2025).

Columns and labels:
K562 clone 10-9 cells = experiment: PPIX accumulation in K562-EPP cellular model (Clone 10-9), flow cytometry; type: cell-based; conditions: for effect on PPIX accumulation by flow cytometry: 96 hours; for IC50: Homo sapiens, 96 hours at 37° C., flow cytometry, read-out: IC50 of inhibition of PPIX accumulation
Procedure: CRISPR-Cas9 technology was utilized to generate genetic changes in the Ferrochelatase gene (FECH). Guide RNA sgRNA-1 was designed to target Exon 3 of FECH genetic locus and generate a knockout allele at the FECH genomic locus by introduction of indels that lead to frameshift of the coding sequence and premature stop codon. The K562 cells were cultured in IMDM medium supplemented with 10% fetal bovine serum (FBS), 1% penicillin/streptomycin (PS). CRISPR Cas9 RNP complex with guide RNA (gRNA) was electroporated in K562 cells. The transfection was performed using 4D Nucleofector, SF kit, FF-120 program. The transfected cells were plated at densities of 0.5 cells per well in 96-well plates in complete medium. Cells were allowed to grow until colonies were visible in the well. The K562-EPP subclones were individually expanded and screened for the FECH knockout genotype by PCR of genomic DNA and for the expression of the FECH gene by RT-PCR. K562-Clone 10 is determined to be heterozygous for the FECH knockout allele and has reduced expression level of FECH mRNA than the parental K562 cell line.
In order to introduce the IVS3-T48C mutation into the wild-type allele of the FECH gene in K562-Clone10, CRISPR Cas9 RNP complex with guide RNA sgRNA-2 and single stranded DNA donor were electroporated into the K562-clonel0 that is already heterozygous for the FECH knockout allele generated from the CRISPR-Cas9 gene editing event described in the previous paragraph. sgRNA-2 was designed to target Intron 3, close to the target site IVS3-T48. Similarly, single-cell clones were isolated from this round of gene editing by limited dilution. TA cloning and Sanger sequencing were used to confirm single-cell clones and genotypes. This procedure generated K562 Clone10-IVS-Clone9 (Clone 10-9), which carries the FECH knockout allele in trans with the IVS3-T48C mutation in the other FECH allele.
The effect of GlyT1 inhibitors on reducing PPIX accumulation was evaluated in the K562-EPP cellular model, Clone 10-9. 900 μL of K562 clone 10-9 cells at 2×10^5 cells/mL in IMDM media with 10% FBS and 1% PS were plated into a 24-well plate. After 24-hour incubation, 100 μL of compound in DMSO/media was added in different concentration. The final concentration of DMSO was 0.1%. The compound was incubated for 96 hours at 37° C. Cell viability and cell count were measured by Vi-CELL XR Complete System. Finally, the effect of the compound on PPIX level was determined by flow cytometry.

[1] = system: FECH knockdown CD34+ cells; experiment: PPIX accumulation in FECH knockdown CD34+ cells (CD34+-EPP cells), LC-MS/MS; type: cell-based, human; conditions: for effect on PPIX accumulation / IC50: FECH knockdown CD34+ cells; for IC50: Homo sapiens, treated 9 days (day 8 to day 16), LC-MS/MS, read-out: IC50 on PPIX levels
Text: To investigate the effects of GlyT1 inhibitors in human hematopoietic stem cells with an EPP phenotype, lentiviral vectors expressing shRNA of FECH were constructed (Table 2) and transduced at 25 MOI into human cord blood-CD34+ cells purchased from Stemexpress.
Specifically, the purchased CD34+ cells were defrosted and expanded for eight days in serum-free Hematopoietic Progenitor Expansion Medium XF (C-28021) supplemented with Cytokine Mix E (human TPO, SCF, FLT-3 ligand and IL-3, #C-39891). During the expansion phase, CD34 expression was monitored, cells were frozen in a serum-free DMSO-based freezing medium (CryoStor® CS2).
For FECH knock-down experiments, cells expanded from a single vial were used to avoid donor heterogeneity. Freshly defrosted cells were expanded for three days (day 0-day 3) and infected with lentivirus expressing shControl or shFECH at an MOI of 25 in the presence of polybrene. After transduction, shRNA expressing cells were selected in the presence of puromycin (1 ug/ml) for four days (day 4-day 7). FECH expression levels were determined in the shFECH transfected CD34+ cells at Day 8. FECH mRNA level was reduced by ˜80% (0.196±0.307) in the shFECH transfected CD34+ cells (FIG. 5A). FECH protein level was reduced by ˜62% in the shFECH transfected CD34+ cells (FIG. 5B and FIG. 5C).
In order to evaluate the effect of GlyT1 inhibitor on PPIX accumulation in CD34^+-EPP cells, the cells were treated with serial dilutions of the compounds or DMSO control in the erythroid differentiation medium for 9 days (day 8 to day 16). The differentiated erythroid cells were harvested at day 16 and assayed for the intracellular PPIX levels by LC-MS/MS.

SMILES	effect on PPIX accumulation by flow cytometry (K562 clone 10-9 cells)	IC50 (K562 clone 10-9 cells)	PPIX pmol/million cells ([1]; 0.46 nM, sample 1)	PPIX pmol/million cells ([1]; 0.46 nM, sample 2)	PPIX pmol/million cells ([1]; 1.37 nM, sample 1)	PPIX pmol/million cells ([1]; 1.37 nM, sample 2)	PPIX pmol/million cells ([1]; 4.12 nM, sample 1)	PPIX pmol/million cells ([1]; 4.12 nM, sample 2)	PPIX pmol/million cells ([1]; 12.35 nM, sample 1)	PPIX pmol/million cells ([1]; 12.35 nM, sample 2)	PPIX pmol/million cells ([1]; 37.04 nM, sample 1)	PPIX pmol/million cells ([1]; 37.04 nM, sample 2)	PPIX pmol/million cells ([1]; 111.11 nM, sample 1)	PPIX pmol/million cells ([1]; 111.11 nM, sample 2)	PPIX pmol/million cells ([1]; 333.33 nM, sample 1)	PPIX pmol/million cells ([1]; 333.33 nM, sample 2)	PPIX pmol/million cells ([1]; 1000.00 nM, sample 1)	PPIX pmol/million cells ([1]; 1000.00 nM, sample 2)	effect on PPIX accumulation [1]	IC50 [1]
C[C@@H](Oc1ccc(S(C)(=O)=O)cc1C(=O)N1C[C@@H]2C[C@]2(c2cc(C(F)(F)F)on2)C1)C(F)(F)F [Compound A]	dose-dependent inhibition of PPIX accumulation	43.5 nM	19.2 pmol/million cells	18.2 pmol/million cells	11.8 pmol/million cells	16.7 pmol/million cells	18.5 pmol/million cells	13.3 pmol/million cells	30.1 pmol/million cells	20.3 pmol/million cells	18.5 pmol/million cells	19.4 pmol/million cells	7 pmol/million cells	7.25 pmol/million cells	5.97 pmol/million cells	4.69 pmol/million cells	3.94 pmol/million cells	6.95 pmol/million cells	decreased	97.1 nM
C[C@H](Oc1ccc(S(C)(=O)=O)cc1C(=O)N1Cc2cc(C(F)(F)F)cnc2C1)C(F)(F)F [Compound X]	dose-dependent inhibition of PPIX accumulation	76.8 nM	25 pmol/million cells	27.1 pmol/million cells	27.3 pmol/million cells	46.5 pmol/million cells	34.4 pmol/million cells	24.7 pmol/million cells	34.6 pmol/million cells	34.6 pmol/million cells	14.7 pmol/million cells	17.5 pmol/million cells	13.6 pmol/million cells	13.5 pmol/million cells	14.1 pmol/million cells	15.2 pmol/million cells	11 pmol/million cells	12.8 pmol/million cells	decreased PPIX accumulation	33.5 nM
